Laboratory results: patent US20100093642A1, “NOVEL POLYPEPTIDES” (priority 2006, published 2010)
Values after ≈ are worked out from the molar mass of the structure shown. Where two headings read alike, the source gives them in different places. Residues, ends and D or L forms follow the SMILES beside them. No end group written: not given here.

Assays:
S. aureus (ATCC 9144) = format: cell-based, Staphylococcus aureus
Outline: (§1)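 Peptide fractions were incubated with actively growing bacteria in Mueller Hinton medium at a starting concentration of 3×10^4 cells per ml. Growth was monitored continuously in a Bioscreen C reader; polymyxin B served as reference.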

E. coli (ATCC 25922) = format: cell-based, Escherichia coli
Outline: as §1

[1] = test system: murine B lymphoma (reticulum cell sarcoma) cell line A20; format: cell-based; conditions: 4 h
Protocol: The cytotoxic effects of the peptides on different human tumour cells were measured using the MTT colorimetric assay (Mosmann, 1983). MIT (3-(4-5-dimethylthiazol-2-yl)-2,5-diphenyl tetrazolium bromide) is a soluble tetrazolium salt yielding a yellow solution when prepared in media or salt solutions lacking phenol red. Dissolved MIT is converted to an insoluble purple formazan by cleavage of the tetrazolium ring by dehydrogenase enzymes. This water insoluble formazan can be solubilized using isopropanol or other solvents and the dissolved material is measured spectrophotometrically. The absorbance was measured as a function of concentration of converted dye. The conversion of the soluble dye to the insoluble purple formazan is utilized in assays for measurement of cell proliferation. […] We used this assay to measure the degree of cell death caused by the peptides.
CT26 and A20 were maintained in RPMI-1640 medium supplemented with 10% heat inactivated FBS and 1% L-glutamine in a humidified atmosphere of 5% CO2 at 37° C. The human embryonic fibroblast cell line, MRC-5, was cultured as a monolayer in MEM medium, under the same conditions as described for the tumour cell lines. CT26 and MRC-5 cells to be used in the assay were grown to a minimum of 75% confluency, trypsinated and split to single cell suspension, counted and centrifuged at 1500 rpm for 7 min. The cell pellet was resuspended to a concentration of 1-2×10^5 cells/ml in RPMI-1640 medium without FBS and L-glutamine-L-alanine (assay-medium). The A20 cells were grown in suspension and adjusted to a concentration of 6×10^5 cells/ml in assay medium. All cell lines were routinely tested for mycoplasma infection using a PCR-based mycoplasma detection kit (MycoSensor PCR Assay Kit, Stratagene), following the supplier's instructions. All cell lines were mycoplasma free.
The cytotoxicity was measured using the MTT method (Mosmann, 1983), with minor modifications. The adherent cells (CT26 and MRC-5) were applied in 96-well culture plates in a volume of 100 μl assay medium and incubated at 37° C. for 24 hours. The A20 cells were applied to the microtiter plates just prior to testing. The medium was removed and the cells were treated with 100 μl of peptide solution (concentrations ranging from 0 to 400 μg/ml), diluted in serum-free medium, and the plates were incubated at 37° C. for 4 hours. Cells treated with Triton X-100 (1%) were used as positive control (100% killing) whereas cells plus medium only were used as negative control. Following the incubation period, 10 and 20 μl MTT (5 mg/ml, dissolved in PBS) were added to each well in the adherent cells (CT26 and MRC-5) and the A20 cells, respectively. After further incubation for 2 hours, a volume of 70 μl of the supernatant was removed and 100 μl acid alcohol (0.04 M HCl in isopropanol) added to each well in the adherent cell lines. For the cells grown in suspension (A20), a volume of 130 μl of the supernatant was removed and 100 μl acid alcohol was added. The plates were placed on a shaker for 1 hour at room temperature and read spectrophotometrically at 590 nm in a microtiter plate reader (Thermomax Molecular devices, New Jersey, USA). Cell survival (%, averaging at least 2 parallels) and IC50 values were estimated as described above.

[2] = test system: Listonella (Vibrio) anguillarum, serotype O2 (FT 1801); format: cell-based
Outline: as §1

Rhodotorula sp. = conditions: 48 h
Outline: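 Broth microdilution in half-strength potato dextrose broth, final 2×10^5 spores per ml, peptides in two-fold dilutions from 50 μM to 0.1 μM final. Incubated in the dark without shaking at 25° C. (37° C. for C. albicans) for 48 h; MIC is lowest concentration giving 50% inhibition of visible growth, scored microscopically.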

| Compound | Minimal inhibitory concentration, S. aureus (S. aureus (ATCC 9144); ATCC 9144) | Minimal inhibitory concentration, E. coli (E. coli (ATCC 25922)) | Minimal inhibitory concentration, S. aureus (S. aureus (ATCC 9144); 37° C.) | IC50 [1] | Minimal inhibitory concentration, L. anguillarum [2] | Minimal inhibitory concentration (MIC), Rhodotorula sp. (Rhodotorula sp.) |
| --- | --- | --- | --- | --- | --- | --- |
| CC[C@H](C)[C@H](NC(=O)CNC(=O)[C@H](CO)NC(=O)[C@H](CCCCN)NC(=O)[C@@H](NC(=O)[C@H](C)NC(=O)[C@H](Cc1c[nH]cn1)NC(=O)[C@H](CO)NC(=O)[C@@H](NC(=O)[C@H](CCCCN)NC(=O)[C@H](Cc1c[nH]cn1)NC(=O)[C@H](Cc1ccccc1)NC(=O)[C@@H](NC(=O)[C@H](CCCCN)NC(=O)[C@H](CCCCN)NC(=O)[C@H](Cc1ccccc1)NC(=O)C(Cc1c[nH]c2ccc(Br)cc12)NC(=O)CN)[C@@H](C)O)C(C)C)C(C)C)C(=O)N[C@@H](Cc1c[nH]cn1)C(=O)N[C@@H](C)C(=O)O (some centres unmarked) [P17 HC-Br (1-20)] (HELM PEPTIDE1{G.[O=C(C(Cc1c[nH]c2ccc(Br)cc12)N[*:1])[*:2]].F.K.K.T.F.H.K.V.S.H.A.V.K.S.G.I.H.A}$$$$V2.0; N-terminus and C-terminus assumed) | 100 µM (≈ 234 µg/mL) | 6.25 µM (≈ 14.7 µg/mL) |  |  |  |  |
| CC[C@H](C)[C@H](NC(=O)CNC(=O)[C@H](CO)NC(=O)[C@H](CCCCN)NC(=O)[C@@H](NC(=O)[C@H](C)NC(=O)[C@H](Cc1c[nH]cn1)NC(=O)[C@H](CO)NC(=O)[C@@H](NC(=O)[C@H](CCCCN)NC(=O)[C@H](Cc1c[nH]cn1)NC(=O)[C@H](Cc1ccccc1)NC(=O)[C@@H](NC(=O)[C@H](CCCCN)NC(=O)[C@H](CCCCN)NC(=O)[C@H](Cc1ccccc1)NC(=O)C(Cc1c[nH]c2ccc(Br)cc12)NC(=O)CN)[C@@H](C)O)C(C)C)C(C)C)C(=O)N[C@@H](Cc1c[nH]cn1)C(=O)N[C@@H](C)C(=O)NCC(=O)N[C@@H](CCC(N)=O)C(=O)N[C@@H](CCCNC(=N)N)C(=O)NCC(=O)N[C@@H](CS)C(=O)N[C@@H](CO)C(=O)N[C@@H](C)C(=O)N[C@@H](CC(C)C)C(=O)NCC(=O)N[C@@H](Cc1ccccc1)C(=O)O (some centres unmarked) [P17 HC-Br] (HELM PEPTIDE1{G.[O=C(C(Cc1c[nH]c2ccc(Br)cc12)N[*:1])[*:2]].F.K.K.T.F.H.K.V.S.H.A.V.K.S.G.I.H.A.G.Q.R.G.C.S.A.L.G.F}$$$$V2.0) | 1.56 µM (≈ 5.18 µg/mL) | 1.56 µM (≈ 5.18 µg/mL) | 6.25 µM (≈ 20.8 µg/mL) | 24.1 µM | 0.78 µM (≈ 2.59 µg/mL) | 3.12 µM (≈ 10.4 µg/mL) |
| GWFKKTFHKVSHAVKSGIHA [P17 HC (1-20)] | 100 µM | 6.25 µM |  |  |  |  |
| GWFKKTFHKVSHAVKSGIHAGQRGCSALGF [P17 HC] |  | 1.56 µM |  | 3.9 µM | 0.78 µM | 3.12 µM |
